Reference: PMC12281424, “A Rac-specific competitive inhibitor of guanine nucleotide binding reduces metastasis in triple-negative breast cancer” (Cell Reports Medicine, 2025)

Assays:
CDKL4(h) = CDKL4(h) (Homo sapiens, UniProt Q5MAI5); experiment: Kinase Profiler; format: biochemical
Method: (§1) The kinase profiler was performed by the company Eurofins (Discovery, Panlab and Cerep).

Ros(h) = Ros(h) (Homo sapiens, UniProt P08922); experiment: Kinase Profiler; format: biochemical
Method: (§2) Blood cell counts, kinase profiler, safety screen, bacterial cytotoxicity, Ames, micronucleus assays were performed by the company Eurofins (France). The kinase profiler was performed by the company Eurofins (Discovery, Panlab and Cerep).

[1] = target: PI3K (p110a(H1047R)/p85a)(m) (Mus musculus, UniProt P42337, H1047R); experiment: Kinase Profiler; format: biochemical
Method: as §2

SGK3(h) = SGK3(h) (Homo sapiens, UniProt Q96BR1); experiment: Kinase Profiler; format: biochemical
Chain of SGK3(h) (Q96BR1 whole entry): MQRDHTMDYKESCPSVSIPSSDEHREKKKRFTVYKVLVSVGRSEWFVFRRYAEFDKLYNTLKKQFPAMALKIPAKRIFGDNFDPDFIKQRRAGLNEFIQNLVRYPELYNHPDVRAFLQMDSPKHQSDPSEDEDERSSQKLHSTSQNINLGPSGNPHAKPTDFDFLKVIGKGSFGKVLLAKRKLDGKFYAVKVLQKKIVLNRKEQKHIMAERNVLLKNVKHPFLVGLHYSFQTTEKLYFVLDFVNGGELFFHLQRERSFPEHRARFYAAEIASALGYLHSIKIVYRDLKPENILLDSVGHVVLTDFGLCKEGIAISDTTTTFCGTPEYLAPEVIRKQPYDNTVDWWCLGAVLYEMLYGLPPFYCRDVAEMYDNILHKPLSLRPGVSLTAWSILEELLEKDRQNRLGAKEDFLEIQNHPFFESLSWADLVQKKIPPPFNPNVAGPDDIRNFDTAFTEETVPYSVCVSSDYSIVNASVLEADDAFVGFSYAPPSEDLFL
Method: as §1

STK32B(h) = STK32B(h) (Homo sapiens, UniProt Q9NY57); experiment: Kinase Profiler; format: biochemical
Method: as §1

NEK4(h) = NEK4(h) (Homo sapiens, UniProt P51957); experiment: Kinase Profiler; format: biochemical
Method: as §1

PKCη(h) = PKCη(h) (Homo sapiens, UniProt P24723); experiment: Kinase Profiler; format: biochemical
Method: as §1

SAPK2b(h) = SAPK2b(h) (Homo sapiens, UniProt Q15759); experiment: Kinase Profiler; format: biochemical
Method: as §1

PRK2(h) = PRK2(h) (Homo sapiens, UniProt Q16513); experiment: Kinase Profiler; format: biochemical
Chain of PRK2(h) (Q16513 whole entry): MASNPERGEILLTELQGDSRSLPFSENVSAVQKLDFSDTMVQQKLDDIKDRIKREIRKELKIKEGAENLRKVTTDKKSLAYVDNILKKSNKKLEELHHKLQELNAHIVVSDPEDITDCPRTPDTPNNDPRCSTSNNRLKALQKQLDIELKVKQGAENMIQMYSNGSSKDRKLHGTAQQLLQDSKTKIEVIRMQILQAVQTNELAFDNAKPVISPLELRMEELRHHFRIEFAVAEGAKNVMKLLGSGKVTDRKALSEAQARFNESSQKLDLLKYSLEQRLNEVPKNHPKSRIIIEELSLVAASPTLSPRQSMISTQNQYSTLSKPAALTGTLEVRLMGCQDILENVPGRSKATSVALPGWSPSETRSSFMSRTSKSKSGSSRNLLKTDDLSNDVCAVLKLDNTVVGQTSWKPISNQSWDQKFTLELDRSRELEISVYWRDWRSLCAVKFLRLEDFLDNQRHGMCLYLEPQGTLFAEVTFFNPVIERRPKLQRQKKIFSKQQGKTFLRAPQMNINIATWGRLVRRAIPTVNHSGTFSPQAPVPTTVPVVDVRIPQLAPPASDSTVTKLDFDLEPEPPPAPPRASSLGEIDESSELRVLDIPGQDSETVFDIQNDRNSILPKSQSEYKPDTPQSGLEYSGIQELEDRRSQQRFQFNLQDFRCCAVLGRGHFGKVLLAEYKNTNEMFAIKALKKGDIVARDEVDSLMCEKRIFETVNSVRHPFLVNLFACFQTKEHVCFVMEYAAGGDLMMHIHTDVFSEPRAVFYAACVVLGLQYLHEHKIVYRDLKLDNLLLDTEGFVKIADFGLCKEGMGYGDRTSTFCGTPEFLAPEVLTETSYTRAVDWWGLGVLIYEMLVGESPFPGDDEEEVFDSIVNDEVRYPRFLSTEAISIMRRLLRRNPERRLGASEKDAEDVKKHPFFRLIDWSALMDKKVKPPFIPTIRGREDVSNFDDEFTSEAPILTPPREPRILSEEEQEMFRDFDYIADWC
Method: as §1

TYK2(h) = TYK2(h) (Homo sapiens, UniProt P29597); experiment: Kinase Profiler; format: biochemical
Chain of TYK2(h) (P29597 whole entry): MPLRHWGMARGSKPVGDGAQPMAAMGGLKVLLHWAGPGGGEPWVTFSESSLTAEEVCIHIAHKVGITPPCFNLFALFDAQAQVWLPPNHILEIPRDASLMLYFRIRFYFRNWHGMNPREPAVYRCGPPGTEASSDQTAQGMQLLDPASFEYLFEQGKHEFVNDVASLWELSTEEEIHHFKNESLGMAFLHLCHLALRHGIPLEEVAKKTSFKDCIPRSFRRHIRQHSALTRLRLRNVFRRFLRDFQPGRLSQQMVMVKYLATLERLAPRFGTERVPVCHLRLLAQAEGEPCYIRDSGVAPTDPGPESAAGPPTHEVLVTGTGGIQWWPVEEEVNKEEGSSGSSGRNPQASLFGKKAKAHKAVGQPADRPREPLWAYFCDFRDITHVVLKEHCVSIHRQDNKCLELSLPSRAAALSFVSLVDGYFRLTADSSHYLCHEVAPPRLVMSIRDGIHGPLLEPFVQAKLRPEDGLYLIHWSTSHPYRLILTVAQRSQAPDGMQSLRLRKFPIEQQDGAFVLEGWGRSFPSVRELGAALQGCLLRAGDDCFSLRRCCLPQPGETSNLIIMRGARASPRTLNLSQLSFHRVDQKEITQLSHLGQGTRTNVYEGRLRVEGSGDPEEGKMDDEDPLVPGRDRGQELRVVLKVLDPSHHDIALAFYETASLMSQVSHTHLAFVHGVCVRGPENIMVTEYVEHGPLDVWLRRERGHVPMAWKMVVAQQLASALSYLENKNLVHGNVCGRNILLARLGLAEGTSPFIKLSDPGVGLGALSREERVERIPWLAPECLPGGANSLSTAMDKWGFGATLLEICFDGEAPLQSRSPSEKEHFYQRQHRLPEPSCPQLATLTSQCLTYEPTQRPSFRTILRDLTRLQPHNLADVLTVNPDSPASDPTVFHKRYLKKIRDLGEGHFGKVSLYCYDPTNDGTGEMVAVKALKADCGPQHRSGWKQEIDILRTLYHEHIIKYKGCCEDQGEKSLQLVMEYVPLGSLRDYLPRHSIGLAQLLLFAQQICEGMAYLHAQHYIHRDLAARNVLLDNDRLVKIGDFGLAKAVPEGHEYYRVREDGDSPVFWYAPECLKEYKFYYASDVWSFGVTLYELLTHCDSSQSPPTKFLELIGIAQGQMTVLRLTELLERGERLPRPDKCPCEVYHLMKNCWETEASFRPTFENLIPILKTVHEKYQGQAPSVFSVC
Method: as §2

cKit(V654A)(h) = cKit(V654A)(h) (Homo sapiens, UniProt P10721, V654A); experiment: Kinase Profiler; format: biochemical
Chain of cKit(V654A)(h) (P10721 26-976 V654A): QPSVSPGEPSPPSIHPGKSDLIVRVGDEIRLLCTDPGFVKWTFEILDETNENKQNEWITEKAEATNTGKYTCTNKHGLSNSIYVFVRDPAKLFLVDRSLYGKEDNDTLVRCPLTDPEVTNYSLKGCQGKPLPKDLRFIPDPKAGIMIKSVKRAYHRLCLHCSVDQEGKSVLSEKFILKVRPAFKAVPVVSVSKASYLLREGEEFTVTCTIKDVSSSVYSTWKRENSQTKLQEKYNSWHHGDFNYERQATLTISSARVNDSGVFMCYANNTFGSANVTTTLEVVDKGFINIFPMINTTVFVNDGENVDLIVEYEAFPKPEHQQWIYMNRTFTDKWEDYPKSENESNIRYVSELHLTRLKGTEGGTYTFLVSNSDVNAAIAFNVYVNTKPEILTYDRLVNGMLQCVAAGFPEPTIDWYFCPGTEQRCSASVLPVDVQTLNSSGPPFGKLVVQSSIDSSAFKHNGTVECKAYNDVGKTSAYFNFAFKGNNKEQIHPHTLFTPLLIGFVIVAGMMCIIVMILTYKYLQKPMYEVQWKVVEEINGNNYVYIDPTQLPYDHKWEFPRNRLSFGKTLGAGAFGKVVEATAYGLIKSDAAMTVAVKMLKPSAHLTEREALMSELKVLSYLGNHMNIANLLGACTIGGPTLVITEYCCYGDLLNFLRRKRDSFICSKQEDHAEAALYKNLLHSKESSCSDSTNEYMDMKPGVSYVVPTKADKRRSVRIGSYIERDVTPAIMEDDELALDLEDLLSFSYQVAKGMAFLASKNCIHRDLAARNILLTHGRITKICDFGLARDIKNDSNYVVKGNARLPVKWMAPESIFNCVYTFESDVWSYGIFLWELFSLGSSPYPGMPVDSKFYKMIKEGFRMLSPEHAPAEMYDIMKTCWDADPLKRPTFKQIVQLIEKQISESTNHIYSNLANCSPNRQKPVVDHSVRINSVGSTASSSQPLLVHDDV
Method: as §2

ROCK-II(h) = ROCK-II(h) (Homo sapiens, UniProt O75116); experiment: Kinase Profiler; format: biochemical
Method: as §2

[2] = target: Serotonin (5-Hydroxytryptamine) 5-HT3 (Homo sapiens, UniProt P46098); experiment: Safety screen; format: binding
Method: (§3) Blood cell counts, kinase profiler, safety screen, bacterial cytotoxicity, Ames, micronucleus assays were performed by the company Eurofins (France).

IKKβ(h) = IKKβ(h) (Homo sapiens, UniProt O14920); experiment: Kinase Profiler; format: biochemical
Method: as §2

CDK5/p35(h) = CDK5/p35(h) (Homo sapiens, UniProt Q00535); experiment: Kinase Profiler; format: biochemical
Method: as §2

MARK3(h) = MARK3(h) (Homo sapiens, UniProt P27448); experiment: Kinase Profiler; format: biochemical
Method: as §1

SIK2(h) = SIK2(h) (Homo sapiens, UniProt Q9H0K1); experiment: Kinase Profiler; format: biochemical
Method: as §1

CaMKIIβ(h) = CaMKIIβ(h) (Homo sapiens, UniProt Q13554); experiment: Kinase Profiler; format: biochemical
Method: as §1

PrKX(h) = PrKX(h) (Homo sapiens, UniProt P51817); experiment: Kinase Profiler; format: biochemical
Method: as §1

DMPK(h) = DMPK(h) (Homo sapiens, UniProt Q09013); experiment: Kinase Profiler; format: biochemical
Chain of DMPK(h) (Q09013 whole entry): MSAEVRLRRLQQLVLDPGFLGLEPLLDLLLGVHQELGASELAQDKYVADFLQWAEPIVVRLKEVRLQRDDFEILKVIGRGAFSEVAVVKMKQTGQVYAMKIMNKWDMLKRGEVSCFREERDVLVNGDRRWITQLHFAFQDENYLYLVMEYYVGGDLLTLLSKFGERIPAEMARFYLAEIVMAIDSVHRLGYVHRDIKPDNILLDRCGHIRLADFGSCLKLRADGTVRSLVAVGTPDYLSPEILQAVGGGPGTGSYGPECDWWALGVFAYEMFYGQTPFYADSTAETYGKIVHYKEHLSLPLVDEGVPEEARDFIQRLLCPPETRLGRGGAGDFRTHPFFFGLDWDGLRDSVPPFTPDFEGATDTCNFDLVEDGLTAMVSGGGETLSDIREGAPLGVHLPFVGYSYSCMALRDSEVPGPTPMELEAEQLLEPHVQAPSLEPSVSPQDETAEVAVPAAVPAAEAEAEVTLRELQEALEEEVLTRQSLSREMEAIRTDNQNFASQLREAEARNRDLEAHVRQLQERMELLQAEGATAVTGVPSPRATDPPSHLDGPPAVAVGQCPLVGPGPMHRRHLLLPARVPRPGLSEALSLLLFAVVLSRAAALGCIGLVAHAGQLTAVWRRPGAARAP
Method: as §2

TAO1(h) = TAO1(h) (Homo sapiens, UniProt Q7L7X3); experiment: Kinase Profiler; format: biochemical
Method: as §2

CDK17/cyclinY(h) = CDK17/cyclinY(h) (Homo sapiens, UniProt Q00537); experiment: Kinase Profiler; format: biochemical
Method: as §2

ACK1(h) = ACK1(h) (Homo sapiens, UniProt Q07912); experiment: Kinase Profiler; format: biochemical
Method: as §1

Adrenergic α2A = Adrenergic α2A (Homo sapiens, UniProt P08913); experiment: Safety screen; format: binding
Method: as §3

Wee1B(h) = Wee1B(h) (Homo sapiens, UniProt P0C1S8); experiment: Kinase Profiler; format: biochemical
Chain of Wee1B(h) (P0C1S8 whole entry): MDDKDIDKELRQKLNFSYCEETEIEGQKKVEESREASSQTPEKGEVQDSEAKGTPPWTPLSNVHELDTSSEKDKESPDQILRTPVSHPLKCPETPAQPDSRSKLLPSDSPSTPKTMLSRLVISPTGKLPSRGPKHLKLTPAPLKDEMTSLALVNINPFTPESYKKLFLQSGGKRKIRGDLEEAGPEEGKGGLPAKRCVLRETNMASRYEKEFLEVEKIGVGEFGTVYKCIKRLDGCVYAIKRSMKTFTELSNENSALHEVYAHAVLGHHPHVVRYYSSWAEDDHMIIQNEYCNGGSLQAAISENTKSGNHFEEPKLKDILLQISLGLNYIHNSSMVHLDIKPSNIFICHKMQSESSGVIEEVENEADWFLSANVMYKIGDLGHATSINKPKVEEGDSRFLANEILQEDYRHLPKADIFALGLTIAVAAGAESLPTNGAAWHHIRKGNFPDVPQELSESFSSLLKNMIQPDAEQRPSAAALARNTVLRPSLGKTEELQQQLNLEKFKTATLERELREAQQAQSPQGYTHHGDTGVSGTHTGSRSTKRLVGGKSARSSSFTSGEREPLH
Method: as §1

EphA1(h) = EphA1(h) (Homo sapiens, UniProt P21709); experiment: Kinase Profiler; format: biochemical
Method: as §1

CHK2(h) = CHK2(h) (Homo sapiens, UniProt O96017); experiment: Kinase Profiler; format: biochemical
Method: as §1

Ret(V804M)(h) = Ret(V804M)(h) (Homo sapiens, UniProt P07949, V804M); experiment: Kinase Profiler; format: biochemical
Method: as §1

LRRK2(h) = LRRK2(h) (Homo sapiens, UniProt Q5S007); experiment: Kinase Profiler; format: biochemical
Method: as §1

cKit(h) = cKit(h) (Homo sapiens, UniProt P10721); experiment: Kinase Profiler; format: biochemical
Chain of cKit(h) (P10721 26-976): as the sequence (P10721 26-976 V654A) above, with A629V counted along it
Method: as §2

[3] = target: PI3K (p110a(E542K)/p85a)(m) (Mus musculus, UniProt P42337, E542K); experiment: Kinase Profiler; format: biochemical
Method: as §1

DCAMKL3(h) = DCAMKL3(h) (Homo sapiens, UniProt Q9C098); experiment: Kinase Profiler; format: biochemical
Method: as §2

Cannabinoid CB2 = Cannabinoid CB2 (Homo sapiens, UniProt P34972); experiment: Safety screen; format: binding
Method: as §3

CK1γ3(h) = CK1γ3(h) (Homo sapiens, UniProt Q9Y6M4); experiment: Kinase Profiler; format: biochemical
Method: as §2

Adrenergic β1 = Adrenergic β1 (Homo sapiens, UniProt P08588); experiment: Safety screen; format: binding
Method: as §2

SAPK4(h) = SAPK4(h) (Homo sapiens, UniProt O15264); experiment: Kinase Profiler; format: biochemical
Method: as §1

For `COc1ccc(OC)c(NS(=O)(=O)c2ccc(NC(=O)CCSc3ccc(C)cc3)cc2)c1` [Compound A41], the “Activity(%)” value (CDKL4(h)) was 91%, the “Activity(%)” value (Ros(h)) was 139% and the “Activity(%)” value [1] was 100%. The “Activity(%)” value (SGK3(h)) was 106%, the “Activity(%)” value (STK32B(h)) was 105% and the “Activity(%)” value (NEK4(h)) was 108%. For the same compound, the “Activity(%)” value (PKCη(h)) was 118%, the “Activity(%)” value (SAPK2b(h)) was 107% and the “Activity(%)” value (PRK2(h)) was 110%. The “Activity(%)” value (TYK2(h)) was 108%, the “Activity(%)” value (cKit(V654A)(h)) was 99% and the “Activity(%)” value (ROCK-II(h)) was 93%. For the same compound, the “% inh.” value [2] was -2%, the “Activity(%)” value (IKKβ(h)) was 110% and the “Activity(%)” value (CDK5/p35(h)) was 99%. For the same compound, the “Activity(%)” value (MARK3(h)) was 98%, the “Activity(%)” value (SIK2(h)) was 90% and the “Activity(%)” value (CaMKIIβ(h)) was 112%. The “Activity(%)” value (PrKX(h)) was 98%, the “Activity(%)” value (DMPK(h)) was 98% and the “Activity(%)” value (TAO1(h)) was 118%. For the same compound, the “Activity(%)” value (CDK17/cyclinY(h)) was 96%, the “Activity(%)” value (ACK1(h)) was 103% and the “% inh.” value (Adrenergic α2A) was 29%. For the same compound, the “Activity(%)” value (Wee1B(h)) was 89%, the “Activity(%)” value (EphA1(h)) was 87% and the “Activity(%)” value (CHK2(h)) was 111%. For the same compound, the “Activity(%)” value (Ret(V804M)(h)) was 106%, the “Activity(%)” value (LRRK2(h)) was 111% and the “Activity(%)” value (cKit(h)) was 101%. For the same compound, the “Activity(%)” value [3] was 99%, the “Activity(%)” value (DCAMKL3(h)) was 104% and the “% inh.” value (Cannabinoid CB2) was 36%. For the same compound, the “Activity(%)” value (CK1γ3(h)) was 101%, the “% inh.” value (Adrenergic β1) was 2% and the “Activity(%)” value (SAPK4(h)) was 104%.
